Source: patent US12599136B2, “Substituted isophthalic acid diamides and their use as herbicides” (Bayer Aktiengesellschaft, priority 2020, dated 2026)

Legend:
Assay type in all cases: in vivo
Abutilon theophrasti [1] = test: Pre-emergence herbicidal action against ABUTH; details: visual score after 3 weeks vs untreated controls
Text: (§1) Seeds of monocotyledonous and dicotyledonous weed plants and crop plants are laid out in sandy loam soil in wood-fiber pots and covered with soil. The compounds of the invention, formulated in the form of wettable powders (WP) or as emulsion concentrates (EC), are then applied to the surface of the covering soil in the form of an aqueous suspension or emulsion at a water application rate equivalent to 600 to 800 l/ha, with addition of 0.2% wetting agent. After the treatment, the pots are placed in a greenhouse and kept under good growth conditions for the trial plants. The damage to the test plants is scored visually after a test period of 3 weeks by comparison with untreated controls (herbicidal activity in percent (%): 100% activity=the plants have died, 0% activity=like control plants). […] The tables below illustrate, in an illustrative manner, the post-emergence herbicidal action of the compounds of the invention, the herbicidal activity being stated in percent.

Alopecurus myosuroides [2] = test: Pre-emergence herbicidal action against ALOMY; details: visual score after 3 weeks vs untreated controls
Text: as §1

Amaranthus retroflexus [3] = test: Pre-emergence herbicidal action against AMARE; details: visual score after 3 weeks vs untreated controls
Text: as §1

Matricaria inodora [4] = test: Pre-emergence herbicidal action against MATIN; details: visual score after 3 weeks vs untreated controls
Text: as §1

Setaria viridis [5] = test: Pre-emergence herbicidal action against SETVI; details: 80 g/ha
Text: as §1

Veronica persica [6] = test: Pre-emergence herbicidal action against VERPE
Text: as §1

Abutilon theophrasti [7] = test: Post-emergence herbicidal action against ABUTH
Description: (§2) Seeds of monocotyledonous and dicotyledonous weed and crop plants are laid out in sandy loam soil in wood-fiber pots, covered with soil and cultivated in a greenhouse under good growth conditions. 2 to 3 weeks after sowing, the test plants are treated at the one-leaf stage. The compounds of the invention, formulated in the form of wettable powders (WP) or as emulsion concentrates (EC), are then sprayed onto the green parts of the plants in the form of an aqueous suspension or emulsion at a water application rate equivalent to 600 to 800 l/ha, with addition of 0.2% wetting agent. After the test plants have been left to stand in the greenhouse under optimal growth conditions for about 3 weeks, the action of the preparations is assessed visually in comparison to untreated controls (herbicidal action in percent (%): 100% activity=the plants have died, 0% activity=like control plants). […] The tables below illustrate, in an illustrative manner, the post-emergence herbicidal action of the compounds of the invention, the herbicidal activity being stated in percent.

Alopecurus myosuroides [8] = test: Post-emergence herbicidal action against ALOMY
Description: as §2

Amaranthus retroflexus [9] = test: Post-emergence herbicidal action against AMARE; details: visual assessment about 3 weeks after treatment
Description: as §2

Avena fatua = test: Post-emergence herbicidal action against AVEFA; details: 20 g/ha, visual assessment about 3 weeks after treatment
Description: as §2

Echinochloa crus-galli [10] = test: Post-emergence herbicidal action against ECHCG; details: visual assessment about 3 weeks after treatment
Description: as §2

Matricaria inodora [11] = test: Post-emergence herbicidal action against MATIN; details: visual assessment about 3 weeks after treatment
Description: as §2

Setaria viridis [12] = test: Post-emergence herbicidal action against SETVI; details: visual assessment about 3 weeks after treatment
Description: as §2

Veronica persica [13] = test: Post-emergence herbicidal action against VERPE; details: 20 g/ha, visual assessment about 3 weeks after treatment
Description: as §2

Viola tricolor [14] = test: Post-emergence herbicidal action against VIOTR
Description: as §2

Digitaria sanguinalis = test: Pre-emergence herbicidal action against DIGSA
Text: as §1

Viola tricolor [15] = test: Pre-emergence herbicidal action against VIOTR
Text: as §1

Pharbitis purpurea = test: Post-emergence herbicidal action against PHBPU; details: 20 g/ha, visual assessment about 3 weeks after treatment
Description: as §2

Echinochloa crus-galli [16] = test: Pre-emergence herbicidal action against ECHCG; details: 80 g/ha; visual score after 3 weeks vs untreated controls
Text: as §1

| SMILES | Pre-emergence action against ABUTH (Abutilon theophrasti [1]; 80 g/ha) [%] | Pre-emergence action against ALOMY (Alopecurus myosuroides [2]; 80 g/ha) [%] | Pre-emergence action against AMARE (Amaranthus retroflexus [3]; 20 g/ha) [%] | Pre-emergence action against AMARE (Amaranthus retroflexus [3]; 80 g/ha) [%] | Pre-emergence action against MATIN (Matricaria inodora [4]; 80 g/ha) [%] | Pre-emergence action against SETVI (Setaria viridis [5]) [%] | Pre-emergence action against VERPE (Veronica persica [6]; 80 g/ha) [%] | Post-emergence action against ALOMY (Alopecurus myosuroides [8]; 20 g/ha) [%] | Post-emergence action against AMARE in % (Amaranthus retroflexus [9]; 5 g/ha) [%] | Post-emergence action against AMARE in % (Amaranthus retroflexus [9]; 20 g/ha) [%] | Post-emergence action against AVEFA in % (Avena fatua) [%] | Post-emergence action against ECHCG in % (Echinochloa crus-galli [10]; 20 g/ha) [%] | Post-emergence action against MATIN in % (Matricaria inodora [11]; 20 g/ha) [%] | Post-emergence action against VIOTR in % (Viola tricolor [14]; 20 g/ha) [%] | Pre-emergence action against ABUTH (Abutilon theophrasti [1]; 20 g/ha) [%] | Pre-emergence action against MATIN (Matricaria inodora [4]; 20 g/ha) [%] | Pre-emergence action against DIGSA (Digitaria sanguinalis; 80 g/ha) [%] | Pre-emergence action against VIOTR (Viola tricolor [15]; 20 g/ha) [%] | Pre-emergence action against VIOTR (Viola tricolor [15]; 80 g/ha) [%] | Pre-emergence action against DIGSA (Digitaria sanguinalis; 20 g/ha) [%] | also measured |
| --- | --- | --- | --- | --- | --- | --- | --- | --- | --- | --- | --- | --- | --- | --- | --- | --- | --- | --- | --- | --- | --- |
| CCN(CC)C(=O)c1c(C(F)F)ccc(C(=O)Nc2nnnn2C)c1C [Example 1-59] | 100 | 90 | 100 | 100 | 90 | 100 | 90 | 90 | 100 | 100 | 90 | 80 | 90 | 80 | – | – | – | – | – | – | Post-emergence action against ABUTH (Abutilon theophrasti [7]; 5 g/ha): 90%; Post-emergence action against ABUTH (Abutilon theophrasti [7]; 20 g/ha): 90%; Post-emergence action against ALOMY (Alopecurus myosuroides [8]; 5 g/ha): 90%; Post-emergence action against SETVI in % (Setaria viridis [12]; 5 g/ha): 90%; Post-emergence action against SETVI in % (Setaria viridis [12]; 20 g/ha): 90%; Post-emergence action against VERPE in % (Veronica persica [13]): 90% |
| Cn1nnnc1NC(=O)c1ccc(C(F)(F)F)c(C(=O)N(C2CC2)C2CC2)c1Cl [Example 1-144] | 100 | – | 90 | 100 | 100 | – | – | – | 90 | 90 | – | – | – | – | 80 | 90 | 100 | 80 | 100 | – | – |
| CCOC(=O)[C@@H]1CCCN1C(=O)c1c(C(F)(F)F)ccc(C(=O)Nc2nnnn2C)c1Cl [Example 1-400] | 100 | – | 90 | 100 | 90 | – | – | – | – | – | – | – | – | – | – | – | 100 | – | – | 100 | – |
| CCOC(=O)[C@@H]1CCCN1C(=O)c1c(C(F)(F)F)ccc(C(=O)Nc2nnnn2C)c1C [Example 1-401] | 100 | – | 100 | 100 | 90 | 100 | – | – | – | – | – | – | 90 | – | 100 | – | 100 | – | – | 90 | Post-emergence action against PHBPU in % (Pharbitis purpurea): 80% |
| CCN(CC)C(=O)c1c(C(F)(F)F)ccc(C(=O)Nc2nnnn2CC)c1C [Example 2-31] | 100 | 80 | 100 | 100 | 100 | 90 | 80 | 80 | – | – | 80 | 90 | 90 | 100 | 100 | 90 | 100 | 100 | 100 | 90 | Post-emergence action against ECHCG in % (Echinochloa crus-galli [10]; 5 g/ha): 80%; Post-emergence action against MATIN in % (Matricaria inodora [11]; 5 g/ha): 80%; Post-emergence action against PHBPU in % (Pharbitis purpurea): 90%; Post-emergence action against SETVI in % (Setaria viridis [12]; 5 g/ha): 80%; Post-emergence action against SETVI in % (Setaria viridis [12]; 20 g/ha): 90%; Post-emergence action against VIOTR in % (Viola tricolor [14]; 5 g/ha): 100% |
| CCN(C(=O)c1c(C(F)(F)F)ccc(C(=O)Nc2nnnn2CC)c1Cl)C1CC1 [Example 2-136] | 100 | 100 | 100 | 100 | 100 | 100 | – | 90 | 100 | 100 | 80 | 90 | 80 | 100 | 100 | 80 | 100 | 100 | 100 | 90 | Pre-emergence action against ALOMY (Alopecurus myosuroides [2]; 20 g/ha): 90%; Pre-emergence action against ECHCG (Echinochloa crus-galli [16]): 90%; Post-emergence action against ABUTH (Abutilon theophrasti [7]; 5 g/ha): 80%; Post-emergence action against ABUTH (Abutilon theophrasti [7]; 20 g/ha): 90%; Post-emergence action against VIOTR in % (Viola tricolor [14]; 5 g/ha): 100% |
| CCOC(=O)[C@@H]1CCCN1C(=O)c1c(C(F)(F)F)ccc(C(=O)Nc2nnnn2CC)c1Cl [Example 2-398] | 100 | – | – | 100 | 100 | 80 | – | – | – | – | – | – | – | – | 80 | – | 90 | – | 100 | – | – |
| CCOC(=O)[C@@H]1CCCN1C(=O)c1c(C(F)(F)F)ccc(C(=O)Nc2nnnn2CC)c1C [Example 2-399] | 100 | – | 90 | 100 | 100 | 100 | 100 | – | – | 80 | – | 80 | 80 | – | 100 | 90 | 100 | 90 | 100 | 90 | Pre-emergence action against ECHCG (Echinochloa crus-galli [16]): 90%; Pre-emergence action against VERPE (Veronica persica [6]; 20 g/ha): 100%; Post-emergence action against PHBPU in % (Pharbitis purpurea): 90% |
